Results as given in patent US20240252499A1, “Treatment of uremic pruritus” (CymaBay Therapeutics, Inc., priority 2023, published 2024).
Like-named read-outs stand apart in the source and are kept apart here.

What was measured:
[1] = tested on: IL-31; conditions: NASH patients; cited from earlier work
[2] = Example 7: topical mavodelpar in uremic pruritus; format: in vivo, human; conditions: topical ointment 1, 2, 5 or 10%; end-stage renal disease on hemodialysis
Protocol: Adult subjects with end-stage renal disease on routine hemodialysis are treated topically with an ointment containing 1, 2, 5, or 10% of mavodelpar. Subjects are permitted their usual other medications. The subjects are assessed before the study, and at intervals during the study, such as every 4 weeks during the study and 4 weeks after the last dose of the mavodelpar therapy, for safety and pharmacodynamic evaluations. At each visit, the subjects are assessed for their disease symptoms and biomarkers, and assessed for pruritus. The subjects also maintain health diaries, which are reviewed at each visit.

[3] = Example 6: oral mavodelpar in uremic pruritus; format: in vivo, human; conditions: oral 5, 10, 25, 50 and 100 mg/day; end-stage renal disease on hemodialysis
Protocol: Adult subjects with end-stage renal disease on routine hemodialysis are treated orally with doses of 5, 10, 25, 50, and 100 mg/day of mavodelpar. Subjects are permitted their usual other medications. The subjects are assessed before the study, and at intervals during the study, such as every 4 weeks during the study and 4 weeks after the last dose of the mavodelpar therapy, for safety and pharmacodynamic evaluations. At each visit, the subjects are assessed for their disease symptoms and biomarkers, and assessed for uremic pruritus. The subjects also maintain health diaries, which are reviewed at each visit.

[4] = biological target: T1, PPARa (Homo sapiens, UniProt Q07869); conditions: read-out: ECso for PPARa; cited from earlier work
T1 sequence (Q07869 1-468): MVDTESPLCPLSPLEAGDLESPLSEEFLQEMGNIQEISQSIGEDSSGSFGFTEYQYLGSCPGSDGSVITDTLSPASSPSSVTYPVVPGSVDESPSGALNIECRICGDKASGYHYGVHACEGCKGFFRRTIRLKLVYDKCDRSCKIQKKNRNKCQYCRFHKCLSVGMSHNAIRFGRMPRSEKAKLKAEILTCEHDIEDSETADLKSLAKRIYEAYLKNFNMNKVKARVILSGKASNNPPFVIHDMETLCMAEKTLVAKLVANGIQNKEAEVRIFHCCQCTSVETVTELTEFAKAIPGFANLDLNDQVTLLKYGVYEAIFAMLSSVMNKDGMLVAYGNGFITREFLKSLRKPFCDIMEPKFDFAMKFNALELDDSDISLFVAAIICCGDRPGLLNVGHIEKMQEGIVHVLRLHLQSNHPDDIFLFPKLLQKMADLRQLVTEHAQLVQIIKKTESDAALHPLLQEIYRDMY

[5] = biological target: T2, PPARy (Homo sapiens, UniProt P37231); conditions: read-out: ECso for PPARy; cited from earlier work
T2 sequence (P37231 1-505): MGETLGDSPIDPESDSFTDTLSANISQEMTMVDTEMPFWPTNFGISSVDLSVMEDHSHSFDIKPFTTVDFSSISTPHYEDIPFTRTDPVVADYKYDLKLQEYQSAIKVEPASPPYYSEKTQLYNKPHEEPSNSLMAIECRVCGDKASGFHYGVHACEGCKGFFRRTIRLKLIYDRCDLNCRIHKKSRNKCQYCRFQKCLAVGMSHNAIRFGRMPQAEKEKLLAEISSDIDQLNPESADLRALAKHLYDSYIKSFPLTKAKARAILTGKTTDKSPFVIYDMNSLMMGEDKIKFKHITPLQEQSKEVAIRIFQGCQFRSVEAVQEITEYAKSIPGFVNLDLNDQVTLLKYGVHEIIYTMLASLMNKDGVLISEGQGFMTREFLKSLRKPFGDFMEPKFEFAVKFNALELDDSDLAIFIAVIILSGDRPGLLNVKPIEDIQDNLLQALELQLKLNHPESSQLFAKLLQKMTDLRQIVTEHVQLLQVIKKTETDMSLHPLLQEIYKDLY

[6] = tested on: human IL-31; assay: Serum human IL-31 in PXB mice (humanized liver) after 19 days of dosing; format: in vivo, PXB mouse; conditions: gavage once/day for 19 days, 2 h after last dose; day 0 0.13 pg/mL
Description: The PXB mouse (PhoenixBio Co., Ltd., Higashi-Hiroshima, Japan) is a chimeric mouse with a humanized liver, produced by transplanting human hepatocytes into the albumin enhancer/promoter-urokinase-type plasminogen activator complementary DNA transgenic/SCID mouse. The mouse has its liver repopulated by human hepatocytes at a ratio of more than 70%, typically 85-90%, as assessed by measuring the ratio of human albumin to mouse albumin in the blood. The transplanted human hepatocytes express a variety of human messenger RNA (mRNA) and proteins, in a similar manner to those of the normal human liver. […] The study was conducted at PhoenixBio. Male PXB mice aged about 25 weeks, kept in single animal cages and fed CRF1 mouse chow supplemented with AS primate chow for vitamin C supplementation (both from Oriental Yeast Co., Ltd., Tokyo, Japan), were randomized into groups (10/group) based on mean values for body weight and blood human albumin concentration. […] Two hours after the last dose, each mouse was anesthetized with isoflurane, at least 400 μL blood was collected by cardiac puncture, and the mouse sacrificed by exsanguination. The blood samples were left to coagulate at room temperature for at least 5 minutes, then centrifuged at 13200×g for 3 minutes at 4 °C to obtain serum, which was analyzed for human IL-31.

[7] = 12-month trial, PBC patients, cited from earlier work
[8] = tested on: IL-31; conditions: humanized liver murine model; cited from earlier work
[9] = Example 5: topical seladelpar in uremic pruritus; format: in vivo, human; conditions: topical ointment 1, 2, 5 or 10%; end-stage renal disease on hemodialysis
Protocol: Subjects are permitted their usual other medications. […] At each visit, the subjects are assessed for their disease symptoms and biomarkers, and assessed for pruritus. The subjects also maintain health diaries, which are reviewed at each visit.

[10] = biological target: T3, peroxisome proliferator-activated receptor-α (Homo sapiens, UniProt Q07869); assay: Specificity of seladelpar for PPARδ compared with PPARα; format: biochemical; conditions: PPARδ vs PPARα
T3 sequence (Q07869 1-468): T1 sequence (Q07869 1-468)
Description: It is specific (>600-fold and >2500-fold compared with peroxisome proliferator-activated receptor-α and peroxisome proliferator-activated receptor-γ receptors). PPARδ activation stimulates fatty acid oxidation and utilization, improves plasma lipid and lipoprotein metabolism, glucose utilization, and mitochondrial respiration, and preserves stem cell homeostasis.

[11] = tested on: IL-31 production by CD4 T cells; assay: IL-31 production by CD4 T cells under Th2-promoting conditions; format: cell-based, human; conditions: for IL-31 concentration in culture medium, mean: 10 μM seladelpar
Protocol: CD4 T cells were enriched from peripheral blood mononuclear cells collected from two normal healthy donors, using the EasySep™ Human CD4+ T Cell Isolation Kit ([…] Technologies). 100,000 CD4 T cells were seeded in a U-bottom 96-well-plate well, and cultured in Th2-promoting conditions promoted by IL-4 or IL-33. […] On day 5 of culture, the anti-CD3/CD28 beads were diluted by adding 150 μL TCM. From days 5 to 13, the cells were cultured in the presence of the same reagents as for days 1 to 4 plus 50 ng/ml IL-2; and the cell culture medium was renewed every 2-3 days by a change of 50% volume of the medium. On day 13 or day 14, the expanded T cells in an individual well were split to four to six wells of 96-well-plate wells; and 5 ng/mL phorbol myristate acetate and 500 ng/mL ionomycin were added for 3 days to re-activate the T cells. The IL-31 concentration in the culture medium of each well was determined using the V-PLEX Human IL-31 Kit (Meso Scale Diagnostics, LLC; Rockville, MD, USA).

[12] = Example 4: oral seladelpar in uremic pruritus; format: in vivo, human; conditions: oral 5, 10, 25 and 50 mg/day; end-stage renal disease on hemodialysis
Protocol: Subjects are permitted their usual other medications. […] At each visit, the subjects are assessed for their disease symptoms and biomarkers, and assessed for uremic pruritus. The subjects also maintain health diaries, which are reviewed at each visit.

[13] = tested on: IL-31; assay: ENHANCE phase 3 study in PBC (NCT03602560): serum IL-31; format: in vivo, human; conditions: 12 weeks, p<0.001
Description: The trial subjects in this phase 3 study were adult, male or female, with a diagnosis of PBC. Exclusion criteria included AST or ALT≥3×ULN, total bilirubin (TBIL)≥2×ULN, autoimmune hepatitis or a history of chronic viral hepatitis, PSC, the current use of fibrates or simvastatin, the use of colchicine, methotrexate, azathioprine, or systemic steroids in the previous two months, the use of an experimental treatment for PBC, and the use of an experimental or unapproved immunosuppressant. […] Serum IL-31 and its correlation with patient-reported pruritus numerical rating scale (NRS, 0-10) were assessed. Baseline IL-31 levels positively correlated with pruritus NRS; r=0.54, p<0.0001). […] IL-31 compared to subjects with pruritus NRS<4 (7.6 pg/mL [1.2, 14.5] vs 1.2 pg/mL [0.3, 2.8], p<0.0001). At baseline, IL-31 was also correlated with serum total bile acids (r=0.54, p<0.0001) and alkaline phosphatase (ALP) (r=0.44, p<0.0001).

[14] = Studies of oral seladelpar in PBC; format: in vivo, human

Structure (SMILES): O=C(O)c1ccnc(N2CC(O)(c3ccc(OCc4c(-c5c(Cl)cccc5Cl)noc4C4CC4)cc3Cl)C2)c1 [cilofexor]
- effect on IL-31 [1]: increased IL-31

Structure (SMILES): Cc1cc(OC/C=C(/c2ccc(F)cc2)c2ccc(C#CCN3CCOCC3)cc2)ccc1OCC(=O)O [mavodelpar, (4-{[(2E)-3-(4-fluorophenyl)-3-{4-[3-(morpholin-4-yl)prop-1-yn-1-yl]phenyl}prop-2-en-1-yl]oxy}-2-methylphenoxy)acetic acid]
- uremic pruritus [2]: improvement in their uremic pruritus
- uremic pruritus [3]: improvement in their uremic pruritus
- EC50 [4]: > 10 µM
- EC50 [5]: > 10 µM

Structure (SMILES): CC[C@H]1[C@@H](O)[C@@H]2[C@H](CC[C@]3(C)[C@@H]([C@H](C)CCC(=O)O)CC[C@@H]23)[C@@]2(C)CC[C@@H](O)C[C@@H]12 [obeticholic acid]
- serum IL-31 concentration [6]: 3.7 pg/mL
- patients with severe pruritus ([7]; OCALIVA 10 mg arm): 23%
- patients with severe pruritus ([7]; OCALIVA titration arm): 19%
- mRNA expression in human hepatocytes [8]: increased

Structure (SMILES): CCO[C@H](COc1ccc(C(F)(F)F)cc1)CSc1ccc(OCC(=O)O)c(C)c1 [seladelpar, [4-({(2R)-2-ethoxy-3-[4-(trifluoromethyl)phenoxy]propyl}sulfanyl)-2-methylphenoxy]acetic acid]
- serum IL-31 concentration [6]: 0.19 pg/mL
- uremic pruritus [9]: improvement in their uremic pruritus
- specificity compared with peroxisome proliferator-activated receptor-α [10]: > 600 fold
- IL-31 concentration in culture medium, mean ([11]; Donor 1, IL-4 promoted): 36.00 pg/mL
- IL-31 concentration in culture medium, mean ([11]; Donor 1, IL-33 promoted): 10.14 pg/mL
- IL-31 concentration in culture medium, mean ([11]; Donor 2, IL-4 promoted): 27.28 pg/mL
- IL-31 concentration in culture medium, mean ([11]; Donor 2, IL-33 promoted): 324.05 pg/mL
- effect on IL-31 production by CD4 T cells ([11]; both donors, both promoters, p<0.0001 vs DMSO, Mann-Whitney): reduced IL-31 production
- uremic pruritus [12]: improvement in their uremic pruritus
- mean IL-31 level at end of study ([13]; 5 mg/day oral, from 3.8 pg/mL at baseline): 1.7 pg/mL
- mean IL-31 level at end of study ([13]; 10 mg/day oral, from 4.2 pg/mL at baseline): 1.7 pg/mL
- efficacy in PBC ([14]; oral doses of 5, 10, 50 and 200 mg/day): effective in the treatment of PBC
- effect on cholestatic pruritus (exacerbation) ([14]; oral doses of 5, 10, 50 and 200 mg/day in PBC): not to exacerbate cholestatic pruritus
- efficacy in cholestatic pruritus associated with PBC ([14]; oral doses of 5 and 10 mg/day): effective in the treatment of cholestatic pruritus
- effect on IL-31 ([14]; studies in PBC): reduce IL-31
